From publication PMC7559897, “Designed Antimicrobial Peptides Against Trauma-Related Cutaneous Invasive Fungal Wound Infections” (Journal of Fungi, 2020)
In brackets after ≈: the same amount, converted by molar mass. Bridge positions count the residues as written; N and C are the ends. Peptide text beside a SMILES is read from it.

How the values were obtained:
L929 fibroblast cells = experiment: Bioluminescent mammalian cytotoxicity assay; format: cell-based, murine; conditions: L929 fibroblasts, up to 64 μg/mL, 8 h of exposure, bioluminescence
Protocol: Real-time killing of bacterial cells, P. aeruginosa or S. aureus, and mammalian cytotoxicity to assess dAMP off-target toxicity was evaluated using bioluminescent cells. The L929 fibroblast cells (ATCC, Manassas, VA, USA) were made bioluminescent by transfection with a luciferase gene. Cells (1 × 10^4 cells, 100 μL) were plated in 96-well black-walled plates and the candidate dAMPs were 2-fold serially diluted from specified concentrations in growth medium supplemented with 150 μg/mL D-luciferin. Each concentration was performed in triplicate, with the final volume being 200 μL. Imaging was performed at select times after the addition of the dAMP, and compared to concurrently run vehicle-control, using an IVIS Lumina imaging system (Caliper Life Sciences, Inc., Hopkinton, MA, USA). For imaging, the 96-well plate was positioned on the stage (12.5-cm field of view), with an open emission filter, binning of 4, and f-stop 1 and a 1-min exposure time. Monitoring bioluminescence allows assessment of the kinetics of cellular viability as there is a tight correlation between the bioluminescent signal and cell viability. […]
Figure 2 RP504, RP556 and RP557 induce limited mammalian cell toxicity. […] Cells were plated at 1×10^4 cells/well, allowed to adhere overnight and the specific dAMP added, and cytotoxicity evaluated through 8 h. […]

[1] = test system: Candida parapsilosis Y-1763; format: cell-based; conditions: potato dextrose broth, 24 h, 37 °C, OD600 <0.1 in at least 3 of 4 wells, dose range 2 to 128 µg/mL; shaded values previously reported ref 17
Outline: (§1)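 Overnight TSB cultures (37 °C) diluted to approx. 10^6 CFU/mL, 2X CAMHB; fungal isolate in potato dextrose broth. dAMP 2-fold series 2–128 μg/mL, n=4. 24 h, 37 °C, A600; MIC: ≥3/4 wells OD <0.1.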

[2] = test system: Candida parapsilosis Y-1761; format: cell-based; conditions: potato dextrose broth, 24 h, 37 °C, OD600 <0.1 in at least 3 of 4 wells, dose range 2 to 128 µg/mL; shaded values previously reported ref 17
Outline: as §1

E. cloacae 6054 = format: cell-based; conditions: cation adjusted Mueller-Hinton broth, ~10^6 CFU/mL, 24 h, 37 °C, OD600 <0.1 in at least 3 of 4 wells, 2-128 μg/mL; shaded values previously reported ref 18
Outline: as §1

[3] = test system: Aspergillus flavus MYA-1004; format: cell-based; conditions: potato dextrose broth, 24 h, 37 °C, OD600 <0.1 in at least 3 of 4 wells, dose range 2 to 128 µg/mL; shaded values previously reported ref 17
Outline: as §1

[4] = test system: Aspergillus fumigatus 9648; format: cell-based; conditions: potato dextrose broth, 24 h, 37 °C, OD600 <0.1 in at least 3 of 4 wells, dose range 2 to 128 µg/mL; shaded values previously reported ref 17
Outline: as §1

[5] = test system: Aspergillus fumigatus 9651; format: cell-based; conditions: potato dextrose broth, 24 h, 37 °C, OD600 <0.1 in at least 3 of 4 wells, dose range 2 to 128 µg/mL; shaded values previously reported ref 17
Outline: as §1

Candida krusei Y-27803 = format: cell-based; conditions: potato dextrose broth, 24 h, 37 °C, OD600 <0.1 in at least 3 of 4 wells, dose range 2 to 128 µg/mL; shaded values previously reported ref 17
Outline: as §1

S. epidermis ATCC 51625 = format: cell-based; conditions: cation adjusted Mueller-Hinton broth, ~10^6 CFU/mL, 24 h, 37 °C, OD600 <0.1 in at least 3 of 4 wells, 2-128 μg/mL; shaded values previously reported ref 18
Outline: as §1

[6] = test system: Absidia corymbifera NRRL 6251; format: cell-based; conditions: potato dextrose broth, 24 h, 37 °C, OD600 <0.1 in at least 3 of 4 wells, dose range 2 to 128 µg/mL; shaded values previously reported ref 17
Outline: as §1

Candida albicans Y-6359 = format: cell-based; conditions: potato dextrose broth, 24 h, 37 °C, OD600 <0.1 in at least 3 of 4 wells, dose range 2 to 128 µg/mL; shaded values previously reported ref 17
Outline: as §1

Candida albicans Y-326 = format: cell-based; conditions: potato dextrose broth, 24 h, 37 °C, OD600 <0.1 in at least 3 of 4 wells, dose range 2 to 128 µg/mL; shaded values previously reported ref 17
Outline: as §1

[7] = test system: Aspergillus flavus MYA-3651; format: cell-based; conditions: potato dextrose broth, 24 h, 37 °C, OD600 <0.1 in at least 3 of 4 wells, dose range 2 to 128 µg/mL; shaded values previously reported ref 17
Outline: as §1

Candida krusei Y-27825 = format: cell-based; conditions: potato dextrose broth, 24 h, 37 °C, OD600 <0.1 in at least 3 of 4 wells, dose range 2 to 128 µg/mL; shaded values previously reported ref 17
Outline: as §1

Q: Which “mammalian cell toxicity (in words)” value (L929 fibroblast cells) does the source give for `CC[C@H](C)[C@@H]1NC(=O)CNC(=O)[C@H](CCCCN)NC(=O)[C@H](Cc2ccc(O)cc2)NC(=O)[C@@H]2CSSC[C@H](NC1=O)C(=O)N[C@@H](Cc1ccccc1)C(=O)N[C@@H](CCCCN)C(=O)N[C@@H](CCCCN)C(=O)N[C@H](C(=O)N[C@@H](CCCCN)C(N)=O)CSSC[C@H](NC(=O)[C@H](Cc1ccccc1)NC(=O)[C@@H](N)CCCNC(=N)N)C(=O)N[C@@H](Cc1c[nH]c3ccccc13)C(=O)N[C@@H](CCCCN)C(=O)N[C@@H](C(C)C)C(=O)N2` [RP557] (H-RFCWKVCYKGICFKKCK-NH2; disulfide 3-16, 7-12) here?
A: Limited toxicity

Q: And the “MIC against Candida parapsilosis Y-1763” value [1]?
A: 2 µg/mL (≈ 0.936 µM)

Q: What about the “MIC against Candida parapsilosis Y-1761” value [2] of the same compound?
A: 16 µg/mL (≈ 7.49 µM)

Q: What about the “MIC against E. cloacae 6054” value (E. cloacae 6054) of the same compound?
A: 8 µg/mL (≈ 3.75 µM)

Q: And the “MIC against Aspergillus flavus MYA-1004” value [3]?
A: 64 µg/mL (≈ 30 µM)

Q: What about the “MIC against Aspergillus fumigatus 9648” value [4] of the same compound?
A: 64 µg/mL (≈ 30 µM)

Q: And the “MIC against Aspergillus fumigatus 9651” value [5]?
A: 64 µg/mL (≈ 30 µM)

Q: And the “MIC against Candida krusei Y-27803” value (Candida krusei Y-27803)?
A: 16 µg/mL (≈ 7.49 µM)

Q: And the “MIC against S. epidermis ATCC 51625” value (S. epidermis ATCC 51625)?
A: 8 µg/mL (≈ 3.75 µM)

Q: And the “MIC against Absidia corymbifera NRRL 6251” value [6]?
A: 2 µg/mL (≈ 0.936 µM)

Q: And the “MIC against Candida albicans Y-6359” value (Candida albicans Y-6359)?
A: 4 µg/mL (≈ 1.87 µM)

Q: And the “MIC against Candida albicans Y-326” value (Candida albicans Y-326)?
A: 16 µg/mL (≈ 7.49 µM)

Q: And the “MIC against Aspergillus flavus MYA-3651” value [7]?
A: 64 µg/mL (≈ 30 µM)

Q: What about the “MIC against Candida krusei Y-27825” value (Candida krusei Y-27825) of the same compound?
A: 16 µg/mL (≈ 7.49 µM)
